The text below walks through data of publication PMC3536977, “4,6-α-Glucanotransferase activity occurs more widespread in Lactobacillus strains and constitutes a separate GH70 subfamily” (Applied Microbiology and Biotechnology, 2012).

The target in the experiment is T1, 4,6-αGT-ML4 (Limosilactobacillus reuteri, UniProt Q5SBN1).
T1 construct: full-length 180 kDa
Put plainly: 1H NMR / TLC / HPAEC of product mixture. It is filed as biochemical. The conditions noted are these: sodium acetate 25 mM pH 4.7, 1 mM CaCl2, 37 °C, 40 h, 25 μg/ml enzyme.

T1 sequence (Q5SBN1 entry or part of it): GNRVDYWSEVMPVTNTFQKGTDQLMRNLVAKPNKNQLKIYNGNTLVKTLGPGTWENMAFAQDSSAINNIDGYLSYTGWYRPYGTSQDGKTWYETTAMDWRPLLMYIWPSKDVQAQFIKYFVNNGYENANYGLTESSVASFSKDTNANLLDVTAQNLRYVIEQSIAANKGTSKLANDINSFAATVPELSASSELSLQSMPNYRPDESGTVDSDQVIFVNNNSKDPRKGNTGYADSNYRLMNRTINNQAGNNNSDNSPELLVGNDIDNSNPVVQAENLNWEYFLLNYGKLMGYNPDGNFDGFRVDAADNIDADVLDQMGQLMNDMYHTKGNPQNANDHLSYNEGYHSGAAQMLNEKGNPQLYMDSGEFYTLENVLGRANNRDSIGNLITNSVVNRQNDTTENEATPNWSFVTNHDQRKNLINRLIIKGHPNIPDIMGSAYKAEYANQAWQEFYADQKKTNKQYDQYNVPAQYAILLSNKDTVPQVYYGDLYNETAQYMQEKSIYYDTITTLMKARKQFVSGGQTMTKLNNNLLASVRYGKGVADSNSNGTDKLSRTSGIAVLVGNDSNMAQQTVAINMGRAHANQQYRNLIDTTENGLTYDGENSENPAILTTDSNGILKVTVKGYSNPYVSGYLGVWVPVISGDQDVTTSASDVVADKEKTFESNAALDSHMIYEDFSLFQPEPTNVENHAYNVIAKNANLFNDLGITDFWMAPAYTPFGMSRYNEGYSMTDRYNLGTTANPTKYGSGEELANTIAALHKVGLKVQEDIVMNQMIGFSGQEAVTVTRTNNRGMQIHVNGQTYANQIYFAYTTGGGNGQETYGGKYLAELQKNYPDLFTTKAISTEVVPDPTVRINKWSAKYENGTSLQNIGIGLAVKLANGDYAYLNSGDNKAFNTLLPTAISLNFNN

On to `OC[C@H]1O[C@H](O[C@H]2[C@H](O)[C@@H](O)[C@@H](O[C@H]3[C@H](O)[C@@H](O)[C@@H](O[C@H]4[C@H](O)[C@@H](O)[C@@H](O[C@H]5[C@H](O)[C@@H](O)[C@@H](O[C@H]6[C@H](O)[C@@H](O)C(O)O[C@@H]6CO)O[C@@H]5CO)O[C@@H]4CO)O[C@@H]3CO)O[C@@H]2CO)[C@H](O)[C@@H](O)[C@@H]1O` (stereo partly shown) [DP6, maltohexaose], for which the “1H NMR / TLC / HPAEC of product mixture” value is recorded as “generated from maltohexaose, showing a linkage ratio”.
